Values of other authors as cited in patent publication US20220249978A1, “NOVEL SOLVENT FOR EXTRACTING, SOLUBILISING AND/OR FORMULATING VOLATILE AND NON-VOLATILE COMPOUNDS OF INTEREST IN ANIMAL NUTRITION AND HEALTH, PREPARATION METHOD AND USES THEREOF” (ID4TECH, priority 2019, published 2022).

What was measured:
Bacillus anthracis = settings: blocks its growth without killing the cells
Candida strains = settings: in vitro and in vivo
[1] = system: pro-inflammatory cytokines (IL-8 and TNF-α)
[2] = system: Gram+ but also Gram− bacteria such as Staphylococcus, Streptococcus, Gardnerella, Haemophilus but also Listeria monocytogenes

For `CCCCCCCCCCCC(=O)OCC(O)CO` (stereo not shown) [glycerol monolaurate], the “action against Bacillus anthracis” value (Bacillus anthracis) is listed as “bacteriostatic agent”, the “growth of Candida strains” value (Candida strains) is listed as “inhibits the growth” and the “quantity of pro-inflammatory cytokines (IL-8 and TNF-α)” value [1] is listed as “significant decrease”. The “growth of Gram+ and Gram− bacteria” value [2] was “acts against the growth”.
